# Measured values published in patent publication US9770451B2, “Composition including ATM inhibitor for reducing cellular senescence and use of the composition” (Samsung Electronics Co., Ltd., priority 2014, dated 2017).
# Legend:
# [1] = tested on: progeria senescent fibroblasts (passage 17); test: Morphological change by microscopy; format: cell-based, human; settings: CP-466722 0.1 μM
# Method: Progeria senescent fibroblasts (Hutchinson-Gilford Progeria Syndrome Skin Fibroblasts, Coriell Cell Repositories, AG03198 B) were inoculated into a DMEM medium containing 10% FBS, 100 units/ml of penicillin, and 100 μg/ml of streptomycin (wherein all antibiotics were purchased from Gibco-BRL, Grand Island, N.Y.), and then, cultured in a 5% CO2 incubator at a temperature of 37° C. When progeria senescent cells were grown to about 85% confluency in a plate, the progeria senescent cells were subjected to subculture. The early subculture was carried out at a split ratio of 1:4, and the late subculture was carried out at a split ratio of 1:2. When the cell doubling time was 14 days, the cells were considered to be progeria senescent fibroblasts (passages 16 to 17).
# […] The medium was replaced by a fresh medium containing KU-60019 (0.5 μM), once every 4 days. In addition, as a negative control group, the cells were cultured under the same conditions as described above, except that a medium used herein contained DMSO (0.05 (v/v) %).
# In FIG. 10, a human dermal fibroblast was cultured in the presence of the ATM-kinase inhibitor KU-60019 (0.5 μM), and then, the cell shapes were photographed using a microscope. To provide a better view of the cells formed in a dashed square a, a dashed square a1 was randomly selected, and then, the cells are shown enlarged in the dashed square a1. […]
# [2] = tested on: senescent myoblasts (passage 11); test: ROS measurement (MitoSOX Red); format: cell-based, human; settings: CP-466722 0.1 μM
# Method: (§1) ROS was measured according to the protocol of the manufacturer using a 0.2 μM MitoSOX™ Red reagent (Invitrogen, M36008). In detail, 2 μL of the reagent that was stored in a 1,000-fold concentration was added to a 2 ml medium sufficiently enough to cover the cultured cells that were attached to a coverslip. While being protected from light, the cells were further incubated at a temperature of 37° C. for 30 minutes. The cultured cells were irradiated with a wavelength of 520 nm by using a FACSCaliber (Beckton Dickinson), and then, measured with radiation emitted from a wavelength of 580 nm. The results were analyzed using Cell Quest 3.2 software (Beckton Dickinson).
# as §1, with “by using an FACSCaliber (Beckton” for “by using a FACSCaliber (Beckton”
smiles,measurement,setting,value
"COc1cc2ncnc(-n3nc(-c4ccccn4)nc3N)c2cc1OC [CP-466722, 2-(6,7-dimethoxyquinazolin-4-yl)-5-(pyridin-2-yl)-2H-1,2,4-triazol-3-amine]",cell number and morphology vs DMSO control,[1],exist in a great number in the presence of CP-466722 and show a spindle form
same,amount of ROS (superoxide) vs control,[2],significantly decreased
